Patent US5439904A, “2-spiro(2'-spirocycloalkyl)cyclopropyl cephalosporin sulfones as antiinflammatory and antigenerative agents” (Synphar Laboratories, Inc., priority 1993, dated 1995)

Molecular target: T1, HLE (Homo sapiens, UniProt P08246)
T1 construct: Purified elastase from human white blood cells; from tissue; host or cells: human white blood cells (purified enzyme)
T1 sequence (P08246 30-247 limits assumed): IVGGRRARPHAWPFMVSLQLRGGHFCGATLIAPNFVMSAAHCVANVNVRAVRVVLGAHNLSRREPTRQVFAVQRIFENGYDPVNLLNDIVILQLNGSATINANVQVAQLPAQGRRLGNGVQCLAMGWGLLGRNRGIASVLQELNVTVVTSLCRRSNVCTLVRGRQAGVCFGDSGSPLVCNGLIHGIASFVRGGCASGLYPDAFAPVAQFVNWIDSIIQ
Assay: Enzyme assay for inhibition of HLE (human leukocyte elastase)
Assay type: biochemical
Settings: purified elastase from human white blood cells, 10 nM; 10 minute preincubation; 0.35 mM MeO-succinyl-L-alanyl-L-alanyl-L-prolyl-L-valine-p-nitroanilide; pH 7.6; 10% dimethylsulfoxide; 410 nm; read-out: IC50 values against HLE
Experimental: ENZYME ASSAY FOR INHIBITION OF HLE
ENZYME: Purified elastase from human white blood cells.
MeO-succinyl-L-alanyl-L-alanyl-L-prolyl-L-valine-
10 mM phosphate buffer (pH 7.6)
The enzyme activity was determined by monitoring the increase in absorbance at 410 nm caused by the hydrolysis of chromogenic substrates. Inhibition of enzyme by the compounds described were determined after a 10 minute preincubation with the enzyme in the reaction mixture minus substrate. Reaction was initiated by the addition of substrate. The concentration of human leukocyte elastase used for assay was at 10 nM.

IC50 [nM] | SMILES
24.4 | CO[C@H]1C(=O)N2C(C(=O)N3CCN(C)CC3)=C(C)C3(CC34CCCC4)S(=O)(=O)C12 (stereo partly shown) [Compound 3]
139 | CO[C@H]1C(=O)N2C(C(=O)N3CCN(CC(=O)O)CC3)=C(C)C3(CC34CCCC4)S(=O)(=O)C12 (stereo partly shown) [Compound 4]
58.1 | CO[C@H]1C(=O)N2C(C(=O)N3CCC(C(=O)O)CC3)=C(C)C3(CC34CCCC4)S(=O)(=O)C12 (stereo partly shown) [Compound 5]
6.4 | CO[C@H]1C(=O)N2C(C(=O)N3CCN(C)CC3)=C(C)C3(CC34CCCCC4)S(=O)(=O)C12 (stereo partly shown) [Compound 7]
8.37 | CO[C@H]1C(=O)N2C(C(=O)N3CCN(CC(=O)OC(C)(C)C)CC3)=C(C)C3(CC34CCCCC4)S(=O)(=O)C12 (stereo partly shown) [Compound 8]
27 | CO[C@H]1C(=O)N2C(C(=O)N3CCN(CC(=O)O)CC3)=C(C)C3(CC34CCCCC4)S(=O)(=O)C12 (stereo partly shown) [Compound 9]
8.4 | CO[C@H]1C(=O)N2C(C(=O)N3CCN(C)CC3)=C(C)C3(CC34CCCCC4)S(=O)(=O)C12 (stereo partly shown) [Compound 10]
15 | CO[C@H]1C(=O)N2C(C(=O)OC(C)(C)C)=C(CSc3nc(=O)c(O)nn3C)C3(CC34CCCC4)S(=O)(=O)C12 (stereo partly shown) [Compound 12]
9.4 | CO[C@H]1C(=O)N2C(C(=O)OC(C)(C)C)=C(CSc3ccccn3)C3(CC34CCCC4)S(=O)(=O)C12 (stereo partly shown) [Compound 13]
15.3 | CO[C@H]1C(=O)N2C(C(=O)OC(C)(C)C)=C(CSc3nnnn3C)C3(CC34CCCC4)S(=O)(=O)C12 (stereo partly shown) [Compound 14]
10.3 | CO[C@H]1C(=O)N2C(C(=O)OC(C)(C)C)=C(CSc3nnc(C)s3)C3(CC34CCCC4)S(=O)(=O)C12 (stereo partly shown) [Compound 15]
32.4 | CO[C@H]1C(=O)N2C(C(=O)N3CCCCC3)=C(CSc3nc(=O)c(O)nn3C)C3(CC34CCCC4)S(=O)(=O)C12 (stereo partly shown) [Compound 16]
870 | CC1=C(C(=O)N2CCC(C(=O)OC(C)(C)C)CC2)N2C(=O)CC2S(=O)(=O)C12CC21CCCC1 (stereo not shown) [Compound 17]
10.7 | CO[C@H]1C(=O)N2C(C(C)=O)=C(C)C3(CC34CCCC4)S(=O)(=O)C12 (stereo partly shown) [Compound 18]
80.7 | CON=C(C)C1=C(C)C2(CC23CCCC3)S(=O)(=O)C2[C@@H](OC)C(=O)N12 (stereo partly shown) [Compound 19]
8.4 | CO[C@H]1C(=O)N2C(C(=O)N3CCC(C(N)=O)CC3)=C(C)C3(CC34CCCC4)S(=O)(=O)C12 (stereo partly shown) [Compound 20]
3.9 | CO[C@H]1C(=O)N2C(C(=O)c3ccccc3)=C(C)C3(CC34CCCC4)S(=O)(=O)C12 (stereo partly shown) [Compound 21]
478 | CC1=C(C(=O)OC(c2ccccc2)c2ccccc2)N2C(=O)CC2S(=O)(=O)C12CC21CCCC1 (stereo not shown) [Compound 22, benzhydryl 7,7-dihydro-2-spiro(2'-spirocyclopentyl)-cyclopropyl-3-methyl-3-cephem-4-carboxylate-1,1-dioxide]
75 | COC1C(=O)N2C(C(=O)N(C)CC(=O)O)=C(C)C3(CC34CCCC4)S(=O)(=O)C12 (stereo not shown) [Compound 23]
34 | CO[C@H]1C(=O)N2C(C(=O)N3CCC(C(=O)O)CC3)=C(CSc3nc(=O)c(O)nn3C)C3(CC34CCCC4)S(=O)(=O)C12 (stereo partly shown) [Compound 24]
27.3 | CO[C@H]1C(=O)N2C(C(=O)N3CCN(C)CC3)=C(C)C3(CC34CCCC4)S(=O)(=O)C12 (stereo partly shown) [drawing 6]

SMILES | IC50 [nM]
CO[C@H]1C(=O)N2C(C(=O)OC(C)(C)C)=C(COC(C)=O)C3(CC34CCCC4)S(=O)(=O)C12 (stereo partly drawn) [Compound 11, t-Butyl-7α-methoxy-2-spiro(2'-spirocyclopentyl)cyclopropyl-3-acetoxymethyl-3-cephem-4-carboxylate-1,1-dioxide] | 9.1
